In one experiment the test system is ZRPELP1 cells. As to the kind of experiment: Initial screen, proliferation assay of PELP1-overexpressing breast cancer cells. The settings on record: FIG. 1B. The format is cell-based, Human. The protocol: FIGS. 1A-D. (FIG. 1A) Diagram for yeast two hybrid screen to identify PELP1 binding peptides. Four regions of PELP1 were tagged with the binding domain and a library of 10^6 random peptides (Clontech) were bound to an activation domain. The number of positive colonies per region of PELP1 are shown in the graph. (FIG. 1B) A proliferation assay was performed with […]1 cells plated in a 96 well plate, treated with peptide every 3 days and absorbance was measured at 7 days. (FIG. 1C) ZR75 were plated in a 6-well plate on coverslips in 8% RPMI and treated with 10 uM FITC labeled peptide for 30, 60, or 120 minutes. They were then fixed with pararformaldehyde, stained for PELP1 (red) and DAPI (blue), and imaged by confocal microscopy to monitor intracellular delivery. (FIG. 1D) ZR75 cells were starved of estrogen for 72 hours and treated with estradiol 10^-7 M for 12 hours. Nuclear lysate was incubated with biotin-tagged peptides bound to avidin beads for one hour. Beads were washed, run on SDS-PAGE gel and probed for PELP1 expression. Input of nuclear lysate is shown as control. Cell proliferation rates were measured by using MTT Cell Viability Assay in 96-well plates. Model cells were seeded in 96-well plates (1×10^3 cells/well) in DMEM or RPMI medium containing 10% serum. After an overnight incubation, cells were treated with varying concentrations of the peptides for 3-7 days and growth inhibition was determined by using traditional MTT assay (Sigma) following manufacturer's instructions.

For experiment [1], the target named is T1, PELP1, G9a and ERα complex (Homo sapiens, UniProt Q8IZL8).
T1 construct: purified bacterial, full-length PELP1; host or cells: bacteria (PELP1)
In words: Competition assay for the complex of PELP1, G9a and ERα. The format is binding. The settings on record: FIG. 2C. On the procedure:
FIGS. 2A-D. (FIG. 2A) Immunoprecipitation was performed on nuclear lysates obtained from […]1 cells grown in 5% DCC for 72 hours and treated with estradiol 10^-7 M for 12 hours. PELP1 was immunoprecipitated and western blotting was performed for PELP1 and G9a expression with IgG as the control. (FIG. 2B) Various fragments of PELP1 bound to glutathione beads were incubated with recombinant G9a for 2 hours. Beads were washed, run on an SDS-PAGE gel and immunoblotted for G9a expression. GST tag alone is shown as control. (FIG. 2C) Recombinant G9a-GST was bound to glutathione beads and incubated with purified PELP1 and peptides for 2 hours. Beads were washed and run on SDS-PAGE gel. (FIG. 2D) ZR75 cells were transfected with ERE-luciferase, PELP1 and/or G9a plasmids and treated with peptide for 24 hours and estradiol 10^-7 M for 12 hours. Relative luciferase activity is shown. Peptides were linked to EZ-Link NHS-Biotin (Thermo Scientific) per manutfacturer's protocol. […] Beads were washed 3× with IP buffer (20 mM HEPES pH 7.9, 20% glycerol, 0.1% triton-x, 100 mM KCl), eluted with SDS-dye, and PELP1 expression was determined by western blotting. […]

Experiment [2] relates to ZR75, ZR75PELP1, MCF7 and MCF7PELP1 cells. In words: MTT proliferation assay, breast cancer cells with and without PELP1 overexpression. It is filed as cell-based, Human. The settings on record: 10 μM every 3 days, day 7, FIG. 4A. On the procedure:
FIGS. 4A-E. (FIG. 4A) ZR75vec, ZR75PELP1, MCF7vec and MCF7PELP1 cells were treated in triplicate with TAT, PIP1 or PIP1 deletions (Del1, Del2, Del3) at 10 uM every 3 days and proliferation was measured by MTT assay on day 7. (FIG. 4B) ZRPELP1 cells were transfected with ERE-luciferase and treated with TAT, PIP1, or PIP2 for 24 hours and with estradiol for 12 hours. Relative luciferase activity was measured in triplicate. (FIG. 4C) ZR75 cells were grown in 5% DCC media for 72 hours, treated with TAT or PIP1 every 3 days, and treated with estradiol 10^−7 M for 12 hours. Proliferation was measured in triplicate on day 7 by MTT assay at 595 nm. (FIG. 4D) MCF7-Letrozole resistant cells were grown in 5% DCC media for 72 hours, treated with TAT, PIP1 or PIP2 every 3 days, and letrozole or estradiol 10^−7 M for 12 hours. Proliferation was measured in triplicate on day 7 by MTT assay at 595 nm. […] Proliferation was measured in triplicate on day 7 by MTT assay at 595 nm.
Cell proliferation rates were measured by using MTT Cell Viability Assay in 96-well plates. […] After an overnight incubation, cells were treated with varying concentrations of the peptides for 3-7 days and growth inhibition was determined by using traditional MTT assay (Sigma) following manufacturer's instructions.
For orientation: Tetrazolium dyes change colour on reduction, which living cells bring about.

The subject of the next experiment is ZR75 cells. As to the kind of experiment: TUNEL assay. The format is cell-based, Human. The conditions noted are these: 10 μM, 24 hours, FIG. 5D. The protocol: FIGS. 5A-D. (FIG. 5A) ZR75vec, ZR75PELP1, MCF7vec and MCF7PELP1 cells were plated in the top of a Boyden chamber transwell, treated with TAT, PIP1 or PIP2 (10 μM) and absorbance was measured at 12 hours in triplicate. (FIG. 5B) MCF7vec, MCFP7ELP1, ZR75vec and ZR75PELP1 cells were treated in triplicate with TAT, PIP1 or PIP2 (10 μM) every 3 days, fixed with methanol on day 10 and stained with crystal violet. Average colonies per well are shown. (FIG. 5C) ZR75vec and ZR75PELP1 cells were plated in triplicate in agar with 8% RPMI with TAT, PIP1 or PIP2 (10 μM). Colonies were counted on day 14, representative images are shown on right. (FIG. 5D) ZR75 cells were plated on coverslips in triplicate and treated with TAT or PIP1 (10 μM) for 24 hours. Cells were fixed with paraformaldehyde and labeled with TUNEL and DAPI, representative images are shown on right.
ZR75 and ZR75PELP1 cells were plated on coverslips in 8% RPMI and treated with peptide for 24 hours. Cells were labeled with in situ Cell Death Detection Kit (Roche) according to manufacturer's protocol, imaged by fluorescent microscopy and quantified.

T1 sequence (Q8IZL8 2-1130, one chain of several): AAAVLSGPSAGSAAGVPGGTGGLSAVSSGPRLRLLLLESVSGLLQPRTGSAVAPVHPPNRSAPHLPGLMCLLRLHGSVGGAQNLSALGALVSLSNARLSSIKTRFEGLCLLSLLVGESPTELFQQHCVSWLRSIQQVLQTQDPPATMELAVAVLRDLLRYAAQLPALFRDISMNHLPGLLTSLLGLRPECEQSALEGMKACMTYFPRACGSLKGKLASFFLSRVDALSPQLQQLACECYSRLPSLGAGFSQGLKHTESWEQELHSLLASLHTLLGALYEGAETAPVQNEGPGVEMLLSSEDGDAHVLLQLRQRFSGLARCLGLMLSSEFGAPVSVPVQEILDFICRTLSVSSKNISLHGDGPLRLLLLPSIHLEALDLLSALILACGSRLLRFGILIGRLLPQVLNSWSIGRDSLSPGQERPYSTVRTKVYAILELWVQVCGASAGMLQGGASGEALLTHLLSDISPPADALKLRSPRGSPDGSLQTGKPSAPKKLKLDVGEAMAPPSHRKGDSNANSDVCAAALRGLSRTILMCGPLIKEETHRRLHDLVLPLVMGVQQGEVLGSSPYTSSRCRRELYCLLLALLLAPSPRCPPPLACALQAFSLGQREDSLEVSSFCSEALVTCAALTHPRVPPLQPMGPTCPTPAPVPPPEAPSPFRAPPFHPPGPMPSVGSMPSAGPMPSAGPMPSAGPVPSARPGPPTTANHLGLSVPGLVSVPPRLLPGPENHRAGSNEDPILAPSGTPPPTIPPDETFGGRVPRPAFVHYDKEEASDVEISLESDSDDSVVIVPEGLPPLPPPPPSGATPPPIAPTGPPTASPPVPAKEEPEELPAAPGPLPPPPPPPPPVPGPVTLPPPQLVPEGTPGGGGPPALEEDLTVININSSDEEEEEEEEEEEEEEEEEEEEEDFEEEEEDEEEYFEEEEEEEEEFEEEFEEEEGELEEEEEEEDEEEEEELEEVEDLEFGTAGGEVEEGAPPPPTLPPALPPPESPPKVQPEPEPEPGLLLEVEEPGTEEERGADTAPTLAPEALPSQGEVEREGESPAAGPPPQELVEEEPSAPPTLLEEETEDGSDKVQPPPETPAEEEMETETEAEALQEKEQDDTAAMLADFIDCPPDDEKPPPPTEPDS

GRKKRRQRRRGGMVEFRWSCPGRRKAKA [PIP1]: the “efficiency at inhibiting proliferation, PIP1 compared with PIP2” value in the experiment on ZRPELP1 cells is “more efficient at inhibiting proliferation than PIP2”. Moreover, in the experiment with ZRPELP1 cells (peptide every 3 days, absorbance at 7 days), the “PELP1-mediated breast cancer cell proliferation” value is given as “significantly inhibit PELP1-mediated proliferation”. Further, in experiment [1], the “formation of PELP1, G9a and ERα complex” value is on record as “prevents the three proteins from forming a complex”. Besides, in experiment [2], the “proliferation by MTT assay” value is “significant decrease”. In addition, the “apoptosis by TUNEL assay” value with ZR75 cells is reported as “induces apoptosis”.

(Values after patent US10682388B2, “Targeting of PELP1 in cancer therapy” (THE BOARD OF REGENTS OF THE UNIVERSITY OF TEXAS SYSTEM, priority 2014, dated 2020).)
